Results published in patent US20200253211A1, “PHOTODYNAMIC INHIBITION OF MICROBIAL PATHOGENS IN PLANTS” (SUNCOR ENERGY INC, priority 2017, published 2020).

Key:
Sclerotinia homoeocarpa [1] = experiment: Radial growth of dollar spot fungus on amended Potato Dextrose Agar, dark vs light; format: cell-based
Sclerotinia homoeocarpa [2] = experiment: Radial growth of dollar spot fungus after treatment of plugs in PBS (24 well plates), dark vs light; format: cell-based
Experimental: In this example, control of dollar spot fungus (Sclerotinia homoeocarpa) with chlorins combined with a chelating agent was assessed. Treatments were prepared in Phosphate Buffered Saline (PBS) in 24 well plates (in duplicates for light vs. dark incubation) at desired concentrations. Then, a 5 mm diameter plug of a Sclerotinia homoeocarpa isolate (3 isolates total tested) was inoculated into the PBS and incubated at 21° C. in the dark for 2 hours. After 2 hours, one of the 24 well plates (with isolates in triplicate) is left in the dark and one 24 well plate is placed under illumination for 1 hour (all at 21° C.). Following illumination, fungal plugs are removed from PBS, blotted dry on sterile filter paper and transferred to non-amended Potato Dextrose Agar (PDA). Radial growth of the fungus is monitored daily until the growth of S. homoeocarpa reaches the edge of the Petri-dish. Illumination is provided by LED lights emitting about 1000 μmol/m^2/s photosynthetically active radiation (PAR). In this example, control of dollar spot fungus (Sclerotinia homoeocarpa) with Zinc Protoporphyrin IX (Zn-PPIX) combined with EDTA was assessed. Treatments were prepared in Phosphate Buffered Saline (PBS) in 24 well plates (in duplicates for light vs. dark incubation) at desired concentrations. Then, a 5 mm diameter plug of a Sclerotinia homoeocarpa isolate (3 isolates total tested) was inoculated into the PBS and incubated at 21° C. in the dark for 2 hours. After 2 hours, one of the 24 well plates (with isolates in triplicate) is left in the dark and one 24 well plate is placed under illumination for 1 hour (all at 21° C.). Following illumination, fungal plugs are removed from PBS, blotted dry on sterile filter paper and transferred to non-amended Potato Dextrose Agar (PDA). Radial growth of the fungus is monitored daily until the growth of S. homoeocarpa reaches the edge of the Petri-dish. Illumination is provided by LED lights emitting about 1000 μmol/m^2/s photosynthetically active radiation (PAR). In this example, control of dollar spot fungus (Sclerotinia homoeocarpa) with bacteriochlorin combined with EDTA was assessed. Treatments were prepared in Phosphate Buffered Saline (PBS) in 24 well plates (in duplicates for light vs. dark incubation) at desired concentrations. Then, a 5 mm diameter plug of a Sclerotinia homoeocarpa isolate (3 isolates total tested) was inoculated into the PBS and incubated at 21° C. in the dark for 2 hours. After 2 hours, one of the 24 well plates (with isolates in triplicate) is left in the dark and one 24 well plate is placed under illumination for 1 hour (all at 21° C.). Following illumination, fungal plugs are removed from PBS, blotted dry on sterile filter paper and transferred to non-amended Potato Dextrose Agar (PDA). Radial growth of the fungus is monitored daily until the growth of S. homoeocarpa reaches the edge of the Petri-dish. Illumination is provided by LED lights emitting about 1000 μmol/m^2/s photosynthetically active radiation (PAR). In this example, control of dollar spot fungus (Sclerotinia homoeocarpa) with Aluminum chlorin e6 combined with EDTA was assessed. Treatments were prepared in Phosphate Buffered Saline (PBS) in 24 well plates (in duplicates for light vs. dark incubation) at desired concentrations. Then, a 5 mm diameter plug of a Sclerotinia homoeocarpa isolate (3 isolates total tested) was inoculated into the PBS and incubated at 21° C. in the dark for 2 hours. After 2 hours, one of the 24 well plates (with isolates in triplicate) is left in the dark and one 24 well plate is placed under illumination for 1 hour (all at 21° C.). Following illumination, fungal plugs are removed from PBS, blotted dry on sterile filter paper and transferred to non-amended Potato Dextrose Agar (PDA). Radial growth of the fungus is monitored daily until the growth of S. homoeocarpa reaches the edge of the Petri-dish. Illumination is provided by LED lights emitting about 1000 μmol/m^2/s photosynthetically active radiation (PAR). […]

[3] = Table 16B, light, Chlorin Rate 5 μM
[4] = Table 16B, light, Chlorin Rate 10 μM
[5] = Table 16B, light, Chlorin Rate 31 μM
[6] = Table 22A, dark, rate 10 μM, growth between 48 and 72 hours
[7] = Table 22B, light, rate 10 μM, growth between 48 and 72 hours
[8] = Table 17D, light, rate 31.62 μM
[9] = Table 17D, light, rate 316.2 μM

In the case of `C=Cc1c(C)c2cc3nc(c(CC(=O)O)c4[n-]c(cc5nc(cc1[n-]2)C(C)=C5CC)c(C)c4C(=O)O)C(CCC(=O)O)C3C.[Zn+2]` (stereo not drawn) [ZnCe6], the “% Inhibition” value (Sclerotinia homoeocarpa [1]; Table 16A, dark, rate 5 μM) is reported as 2.47%, the “Mean Radial Growth” value (Sclerotinia homoeocarpa [1]; Table 16A, dark, rate 5 μM) is reported as 13.2 mm and the “% Inhibition” value (Sclerotinia homoeocarpa [1]; Table 16A, dark, rate 10 μM) is reported as 7.41%. For the same compound, the “Mean Radial Growth” value (Sclerotinia homoeocarpa [1]; Table 16A, dark, rate 10 μM) was 12.5 mm, the “% Inhibition” value (Sclerotinia homoeocarpa [1]; Table 16A, dark, rate 31 μM) was 23.46% and the “Mean Radial Growth” value (Sclerotinia homoeocarpa [1]; Table 16A, dark, rate 31 μM) was 10.3 mm. The “% Inhibition” value (Sclerotinia homoeocarpa [1]; [3]) was 10.4%, the “Mean Radial Growth” value (Sclerotinia homoeocarpa [1]; [3]) was 11.5 mm and the “% Inhibition” value (Sclerotinia homoeocarpa [1]; [4]) was 21.4%. The “Mean Radial Growth” value (Sclerotinia homoeocarpa [1]; [4]) was 10.1 mm, the “% Inhibition” value (Sclerotinia homoeocarpa [1]; [5]) was 41.6% and the “Mean Radial Growth” value (Sclerotinia homoeocarpa [1]; [5]) was 7.5 mm.

In the case of `CC1=C(CCC(=O)O)c2cc3[nH]c(cc4nc(cc5[nH]c(cc1n2)c(C(C)O)c5C)C(C(C)O)=C4C)c(C)c3CCC(=O)O.Cl.Cl` (stereo not drawn) [Hematoporphyrin IX dichloride (HemIX), hematoporphyrin IX dichloride], the “% Inhibition” value (Sclerotinia homoeocarpa [2]; [6]) is reported as −5.45%, the “Mean Radial Growth” value (Sclerotinia homoeocarpa [2]; [6]) is reported as 15.06 mm and the “% Inhibition” value (Sclerotinia homoeocarpa [2]; [7]) is reported as 38.87%. For the same compound, the “Mean Radial Growth” value (Sclerotinia homoeocarpa [2]; [7]) was 8.39 mm.

In the case of `C=Cc1c(C)c2cc3nc(c(CC(=O)O)c4[n-]c(cc5nc(cc1[n-]2)C(C)=C5CC)c(C)c4C(=O)O)C(CCC(=O)O)C3C.[Co+2]` (stereo not drawn) [CoCe6, reference compound], the “% Inhibition” value (Sclerotinia homoeocarpa [1]; Table 17A, dark, rate 10 μM) is reported as 2.05%, the “Mean Radial Growth” value (Sclerotinia homoeocarpa [1]; Table 17A, dark, rate 10 μM) is reported as 13.3 mm and the “% Inhibition” value (Sclerotinia homoeocarpa [1]; Table 17A, dark, rate 31 μM) is reported as 4.92%. For the same compound, the “Mean Radial Growth” value (Sclerotinia homoeocarpa [1]; Table 17A, dark, rate 31 μM) was 12.9 mm, the “% Inhibition” value (Sclerotinia homoeocarpa [1]; Table 17B, light, rate 10 μM) was 3.0% and the “Mean Radial Growth” value (Sclerotinia homoeocarpa [1]; Table 17B, light, rate 10 μM) was 12.4 mm. For the same compound, the “% Inhibition” value (Sclerotinia homoeocarpa [1]; Table 17B, light, rate 31 μM) was 3.9% and the “Mean Radial Growth” value (Sclerotinia homoeocarpa [1]; Table 17B, light, rate 31 μM) was 12.3 mm.

`C=Cc1c(C)c2cc3nc(c(CC(=O)[O-])c4[n-]c(cc5nc(cc1[n-]2)C(C)=C5CC)c(C)c4C(=O)[O-])C(CCC(=O)[O-])C3C.[Cu+2].[Na+].[Na+].[Na+]` (stereo not drawn) [Cu Chlorophyllin (CuChln), Cu chlorophyllin, reference compound] was tested, and the “% Inhibition” value (Sclerotinia homoeocarpa [1]; Table 17C, dark, rate 31.62 μM) was −3.13%, the “Mean Radial Growth” value (Sclerotinia homoeocarpa [1]; Table 17C, dark, rate 31.62 μM) was 14.30 mm and the “% Inhibition” value (Sclerotinia homoeocarpa [1]; Table 17C, dark, rate 100 μM) was −3.37%. The “Mean Radial Growth” value (Sclerotinia homoeocarpa [1]; Table 17C, dark, rate 100 μM) was 14.33 mm, the “% Inhibition” value (Sclerotinia homoeocarpa [1]; Table 17C, dark, rate 316.2 μM) was −5.29% and the “Mean Radial Growth” value (Sclerotinia homoeocarpa [1]; Table 17C, dark, rate 316.2 μM) was 14.60 mm. The “% Inhibition” value (Sclerotinia homoeocarpa [1]; Table 17C, dark, rate 1000 μM) was −3.85%, the “Mean Radial Growth” value (Sclerotinia homoeocarpa [1]; Table 17C, dark, rate 1000 μM) was 14.40 mm and the “% Inhibition” value (Sclerotinia homoeocarpa [1]; [8]) was −18.93%. The “Mean Radial Growth” value (Sclerotinia homoeocarpa [1]; [8]) was 14.03 mm, the “% Inhibition” value (Sclerotinia homoeocarpa [1]; Table 17D, light, rate 100 μM) was −20.34% and the “Mean Radial Growth” value (Sclerotinia homoeocarpa [1]; Table 17D, light, rate 100 μM) was 14.20 mm. For the same compound, the “% Inhibition” value (Sclerotinia homoeocarpa [1]; [9]) was −26.55%, the “Mean Radial Growth” value (Sclerotinia homoeocarpa [1]; [9]) was 14.93 mm and the “% Inhibition” value (Sclerotinia homoeocarpa [1]; Table 17D, light, rate 1000 μM) was −28.81%. The “Mean Radial Growth” value (Sclerotinia homoeocarpa [1]; Table 17D, light, rate 1000 μM) was 15.20 mm.

With Aluminum chlorin e6 [AlCe6] the “% Inhibition” value (Sclerotinia homoeocarpa [2]; Table 21A, dark, rate 1 μM) was −4%, the “Mean Radial Growth” value (Sclerotinia homoeocarpa [2]; Table 21A, dark, rate 1 μM) was 13 mm and the “% Inhibition” value (Sclerotinia homoeocarpa [2]; Table 21A, dark, rate 10 μM) was −5.33%. For the same compound, the “Mean Radial Growth” value (Sclerotinia homoeocarpa [2]; Table 21A, dark, rate 10 μM) was 13.17 mm, the “% Inhibition” value (Sclerotinia homoeocarpa [2]; Table 21B, light, rate 1 μM) was −2.18% and the “Mean Radial Growth” value (Sclerotinia homoeocarpa [2]; Table 21B, light, rate 1 μM) was 13 mm. For the same compound, the “% Inhibition” value (Sclerotinia homoeocarpa [2]; Table 21B, light, rate 10 μM) was 62.45%, the “Mean Radial Growth” value (Sclerotinia homoeocarpa [2]; Table 21B, light, rate 10 μM) was 4.78 mm and the “% Inhibition” value (Sclerotinia homoeocarpa [1]; Table 16A, dark, rate 5 μM) was 1.85%. The “Mean Radial Growth” value (Sclerotinia homoeocarpa [1]; Table 16A, dark, rate 5 μM) was 13.8 mm, the “% Inhibition” value (Sclerotinia homoeocarpa [1]; Table 16A, dark, rate 10 μM) was 3.70% and the “Mean Radial Growth” value (Sclerotinia homoeocarpa [1]; Table 16A, dark, rate 10 μM) was 13.0 mm. The “% Inhibition” value (Sclerotinia homoeocarpa [1]; Table 16A, dark, rate 31 μM) was 3.09%, the “Mean Radial Growth” value (Sclerotinia homoeocarpa [1]; Table 16A, dark, rate 31 μM) was 13.1 mm and the “% Inhibition” value (Sclerotinia homoeocarpa [1]; [3]) was 11.0%. The “Mean Radial Growth” value (Sclerotinia homoeocarpa [1]; [3]) was 11.4 mm, the “% Inhibition” value (Sclerotinia homoeocarpa [1]; [4]) was 41.6% and the “Mean Radial Growth” value (Sclerotinia homoeocarpa [1]; [4]) was 7.5 mm. For the same compound, the “% Inhibition” value (Sclerotinia homoeocarpa [1]; [5]) was 100.0% and the “Mean Radial Growth” value (Sclerotinia homoeocarpa [1]; [5]) was 0.0 mm.
